Results taken from US20200239530A1, “COMPOUNDS AND METHODS OF MODULATING PROTEIN DEGRADATION” (Vividion Therapeutics, Inc., priority 2017, published 2020).

Molecular target: T1, VPS18 Vacuolar protein sorting-associated protein 18 homolog (Homo sapiens, UniProt Q9P253)
T1 construct: Cells were resuspended in cold PBS on ice and sonicated with a probe sonicator to achieve lysis; endogenous in cells
T1 sequence (Q9P253 1-973): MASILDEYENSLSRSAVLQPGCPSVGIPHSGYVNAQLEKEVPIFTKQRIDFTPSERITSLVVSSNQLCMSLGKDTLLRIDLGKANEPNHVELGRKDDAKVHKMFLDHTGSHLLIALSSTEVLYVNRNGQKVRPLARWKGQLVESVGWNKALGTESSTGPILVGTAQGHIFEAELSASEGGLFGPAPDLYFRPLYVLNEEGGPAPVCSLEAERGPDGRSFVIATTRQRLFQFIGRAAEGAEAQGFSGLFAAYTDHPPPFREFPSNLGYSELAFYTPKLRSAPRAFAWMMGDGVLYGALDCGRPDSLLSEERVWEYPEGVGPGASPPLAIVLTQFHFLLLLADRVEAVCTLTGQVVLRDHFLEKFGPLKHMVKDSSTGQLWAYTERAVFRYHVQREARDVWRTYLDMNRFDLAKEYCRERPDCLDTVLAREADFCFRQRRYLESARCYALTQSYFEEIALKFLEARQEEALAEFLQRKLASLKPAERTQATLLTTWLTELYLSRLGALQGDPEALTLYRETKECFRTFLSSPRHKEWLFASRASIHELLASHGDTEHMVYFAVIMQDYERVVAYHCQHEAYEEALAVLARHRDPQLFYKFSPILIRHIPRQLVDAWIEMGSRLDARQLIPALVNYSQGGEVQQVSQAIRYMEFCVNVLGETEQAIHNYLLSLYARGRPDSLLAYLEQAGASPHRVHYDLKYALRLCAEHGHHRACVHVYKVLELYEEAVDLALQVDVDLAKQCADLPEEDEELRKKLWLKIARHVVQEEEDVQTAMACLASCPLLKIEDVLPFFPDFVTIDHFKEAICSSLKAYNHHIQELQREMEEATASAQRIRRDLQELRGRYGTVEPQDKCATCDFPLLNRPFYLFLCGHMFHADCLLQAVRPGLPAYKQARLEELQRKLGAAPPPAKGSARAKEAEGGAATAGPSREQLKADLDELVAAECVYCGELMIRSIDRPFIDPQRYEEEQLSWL
Experiment: Cysteine liganding, probe competition
Format: binding
How it was run: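 Read-out is loss of desthiobiotin iodoacetamide labelling at cysteines, measured on streptavidin-enriched tryptic peptides. Compound preincubation ran 1 hr at 25° C in PBS lysate holding 5 mg/ml proteome before the probe was added.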

Row | Structure (SMILES) | Liganded (VPS18 Res# 806, uniprot Q9P253) | 100 Max (uniprot Q9P253) | 100 ave (uniprot Q9P253) | 500 Max (uniprot Q9P253) | 500 ave (uniprot Q9P253)
1 | COc1ccc2c(c1)CCCN2C(=O)CCl [KB02] | YES |  |  |  | 
2 | O=C(CCl)Nc1cc(C(F)(F)F)cc(C(F)(F)F)c1 [KBO3] |  | 19.6 | 16.2 | 47.0 | 47.0
